This is an account of results in patent publication US11059853B2, “Crystalline or amorphous form of steroid derivative FXR agonist, preparation method therefor and use thereof” (Chia Tai Tianqing Pharmaceutical Group Co., Ltd., priority 2017, dated 2021).

Data set [1] is described as follows: Pharmacokinetics in mice administrated with single compound. It is filed as in vivo, mice (C57BL/6J). The note with it: mouse, plasma, male C57BL/6J mice; for bioavailability: oral 10 mg/kg vs intravenous 2 mg/kg; for AUC / Cmax / Tmax: oral (intragastrical) 10 mg/kg. As for the experimental part:
12 male mice (C57BL/6J) were randomly divided into two groups, i.e., 6 mice per group. […] Plasma (using K2-EDTA as anticoagulant) samples were taken at 0.083, 0.25, 0.5, 1, 2, 4, 6, 8 and 24 hours in the intravenous administration group after administration; and plasma samples were taken at 0.25, 0.5, 1, 2, 4, 6, 8 and 24 hours in the oral administration group after administration. For 6 animals in each group, blood samples were collected for 3 animals at one time point. The first batch of 3 animals was alternately sampled with the second batch of 3 animals. Plasma sample analysis was performed by using LC-MS/MS. The resultant plasma concentrations were plotted with respect to time, and PK parameters were calculated by using Phoenix WinNonlin 6.3.

For data set [2], the target named is T1, FXR (FXR HEK 293T DA cells) (Homo sapiens, UniProt Q96RI1).
T1 sequence (Q96RI1 262-486 limits assumed): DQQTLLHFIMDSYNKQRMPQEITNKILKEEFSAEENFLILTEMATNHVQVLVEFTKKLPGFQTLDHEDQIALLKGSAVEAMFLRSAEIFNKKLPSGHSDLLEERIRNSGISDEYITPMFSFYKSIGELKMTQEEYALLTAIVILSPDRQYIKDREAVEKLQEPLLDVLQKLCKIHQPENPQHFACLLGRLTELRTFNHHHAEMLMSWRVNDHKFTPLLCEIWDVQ
The experiment in a line: FXR cell experiment (β-lactamase reporter gene). It is filed as cell-based. As for the experimental part:
2. Cell culture medium: DMEM medium supplemented with 10% serum and Penicillin/Streptomycin (1×)
3. Detection reagent: GeneBLAzer® Reporter Gene Detection Kit (Invitrogen)
1. Compound Dilution: The compound to be tested was prepared as a 100 μM DMSO solution, and then the compound was diluted 3-fold to 10 concentration points. The reference compound was prepared as a 100 μM DMSO solution, and then diluted 1.3-fold to 10 concentration points. The diluted DMSO solution was added to the wells of a 384-well plate in a volume of 200 nL per well.
3. The 384-well plate was incubated at 37° C., 5% CO2 for 16 hours.
4. 6 μL of 1 mM LiveBLAzer™-FRET 13/G (CCF4-AM) substrate was mixed with 60 μL of B solution and 934 μL of C solution, and added to the wells of the 384-well plate in a volume of 8 μL per well.
5. The 384-well plate was incubated in dark for 2 hours at room temperature.
7. Analytical data: The data was analyzed via using Prism 5.0, and the EC50 values of the activation effects of the compound were calculated.
On the technique in general: In a reporter assay the amount or activity of a reporter protein is the signal.

In data set [3] the target is T2, Glutathione-S-transferase-labeled FXR human protein (Homo sapiens, UniProt Q96RI1).
T2 sequence (Q96RI1 1-486): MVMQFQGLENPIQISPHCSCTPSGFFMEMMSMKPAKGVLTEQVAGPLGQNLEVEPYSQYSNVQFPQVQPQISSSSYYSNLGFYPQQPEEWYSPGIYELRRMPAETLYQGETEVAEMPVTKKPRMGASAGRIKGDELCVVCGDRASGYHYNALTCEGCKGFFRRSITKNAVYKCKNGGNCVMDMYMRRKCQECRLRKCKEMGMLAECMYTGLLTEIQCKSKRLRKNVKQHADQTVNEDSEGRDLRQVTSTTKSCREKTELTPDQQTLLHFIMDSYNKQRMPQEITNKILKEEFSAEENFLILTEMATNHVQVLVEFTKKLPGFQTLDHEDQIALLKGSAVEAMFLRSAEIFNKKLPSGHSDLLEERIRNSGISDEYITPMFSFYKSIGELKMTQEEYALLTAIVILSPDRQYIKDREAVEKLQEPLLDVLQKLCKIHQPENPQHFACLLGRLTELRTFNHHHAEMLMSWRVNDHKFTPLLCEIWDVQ
The experiment in a line: FXR biochemical experiment (AlphaScreen, coactivator recruitment). As for the experimental part: The activation effect of the compound on FXR binding reaction was detected by AlphaScreen. […] Protein: Glutathione-S-transferase-labeled FXR human protein (Invitrogen) 2. Co-activator: Biotin-labeled steroid receptor coactivator (Anaspec) 3. […] Compound Dilution: The compound to be tested was prepared as a 40 μM DMSO solution, and then diluted 3-fold to 10 concentration points. The reference compound was prepared as a 400 μM DMSO solution, and then diluted 1.5-fold to 10 concentration points. The diluted DMSO solution was added to the wells of a 384-well plate in a volume of 150 nL per well. 2. […] 4. […] The operation during the experimental process was protected from light. The incubation was performed for 1 hour at room temperature. 5. […] The operation during the experimental process was protected from light. The incubation was performed for 1 hour at room temperature. 6. EC50 test: Envision was used with excitation at 680 nm to read the absorbance signals at 520-620 nm. 7. Analytical data: The data were analyzed via using Prism 5.0, and the EC50 values of the activation effects of the compound were calculated.

The nature of data set [4]: Solid-state stability test (XRPD detection). It is filed as physicochemical. The note with it: room temperature/75% RH, 40° C./75% RH, 60° C./75% RH (all open); for Solid-state stability: crystalline form by XRPD compared with Day 0: room temperature/92.5% RH, Day 5 and Day 10. As for the experimental part: In the present application, the X-ray powder diffraction patterns are measured by the following method: instrument: Bruker D8 ADVANCE X-ray diffractometer; method: target: Cu: K-Alpha; wavelength: λ=1.54179 Å; tube voltage: 40 kV; divergence slit: 0.60 mm; detector slit: 10.50 mm; antiscattering slit: 7.10 mm; tube current: 40 mA; scan range: 4° to 40°; scanning speed: 0.12 sec/step, 0.02°/step; sample tray rotation speed: 15 rpm.
The solid-state stability of crystalline Form A was examined under the following conditions: 1) 40° C. (open), 2) 60° C. (open), 3) room temperature/92.5% RH (open), 4) room temperature/75% RH (open), 5) 40° C./75% RH (open), and 6) 60° C./75% RH (open), wherein the room temperature was selected from 20° C. to 30° C.
Several samples of crystalline Form A in a suitable amount were taken, and placed on the bottom of the glass specimen bottles and spread into a thin layer. The bottles with the samples to be placed under the abovementioned conditions were capped with aluminum-foil paper which has been punched with several small holes, which ensures that the samples could be in full contact with the ambient air.
The solid-state stability of crystalline Form B was examined under the following conditions: 1) room temperature/92.5% RH (open), 2) room temperature/75% RH (open), 3) 40° C./75% RH (open), and 4) 60° C./75% RH (open), which the room temperature was selected from 20° C. to 30° C.
Several samples of crystalline Form B in a suitable amount were taken, and placed on the bottom of the glass specimen bottles and spread into a thin layer. The bottles with the samples to be placed under the abovementioned conditions were capped with aluminum-foil paper which has been punched with several small holes, which ensures that the samples could be in full contact with the ambient air.
The solid-state stability for the solid amorphous form of the compound of formula I was examined under the following conditions: 1) room temperature/75% RH (open), 2) 40° C./75% RH (open), 3) 60° C./75% RH (open), wherein the room temperature was selected from 20° C. to 30° C. […]

Data set [5] is described as follows: Test for hygroscopicity, Dynamic Vapor Sorption (DVS). It is filed as physicochemical. The note with it: 25±1° C., 80±2% RH. As for the experimental part:
Dynamic Vapor Sorption (DVS) analysis was performed on crystalline Form A and the solid amorphous form of the compound of formula I by the following process and conditions: the samples (10 to 15 mg) were placed in the sample pan; instrument model: SMS DVS Advantage Dynamic Vapor Sorption; temperature: 25° C.; balance: dm/dt=0.01%/min (Min: 10 min, Max: 180 min); drying: for 120 min at 0% RH; RH (%) gradient for testing: 10%; the RH (%) range for gradient testing: 0%-90%-0%. The hygroscopicity was evaluated using the following scale: […]

For the compound `CC[C@H]1[C@@H](O)[C@@H]2[C@H](CC[C@]3(C)[C@@H]([C@H](C)CCC(=O)O)CC[C@@H]23)[C@@]2(C)CC[C@@H](O)C[C@@H]12` [Obeticholic acid, reference compound], in data set [1], the bioavailability was determined as 13%, the area under the curve (AUC) was 0.993 µM·h, the concentration peaked (Cmax) at 1010 nM and the time to peak (Tmax) was 18 min.
For `CC[C@H]1[C@@H](O)[C@@H]2[C@H](CC[C@]3(C)[C@@H]([C@H](C)CCOc4ncc(C(=O)O)cc4Cl)CC[C@@H]23)[C@@]2(C)CC[C@@H](O)C[C@@H]12` [The compound of formula I], the EC50 in data set [2] (FXR HEK 293T DA cells, β-lactamase reporter gene, 16 hours, read-out: FXR cell viability EC50) worked out at 3 nM. Besides, the “FXR cell viability Efficacy” value in data set [2] (highest signal relative to reference compound CDCA) came to 150%. Besides, in data set [1], the bioavailability amounted to 20%, the AUC amounted to 1.11 µM·h, the peak concentration (Cmax) stood at 1780 nM and the time to peak (Tmax) turned out to be 30 min. In data set [3] (AlphaScreen, GST-FXR human protein with biotin-labeled steroid receptor coactivator, read-out: FXR enzyme activity EC50), the EC50 is 2.5 nM. Besides, the “FXR enzyme activity Efficacy” value in data set [3] (highest signal relative to the reference compound) was found to be 248%.
Regarding `CC[C@H]1[C@@H](O)[C@@H]2[C@H](CC[C@]3(C)[C@@H]([C@H](C)CCOc4ncc(C(=O)O)cc4Cl)CC[C@@H]23)[C@@]2(C)CC[C@@H](O)C[C@@H]12` [crystalline Form A], the “Solid-state stability: crystalline form by XRPD compared with Day 0” value in data set [4] (40° C., 60° C.) is given as “remained unchanged”. This compound also returned a hygroscopic weight gain in data set [5] of 0.835%.
Regarding `CC[C@H]1[C@@H](O)[C@@H]2[C@H](CC[C@]3(C)[C@@H]([C@H](C)CCOc4ncc(C(=O)O)cc4Cl)CC[C@@H]23)[C@@]2(C)CC[C@@H](O)C[C@@H]12` [crystalline Form B], the “Solid-state stability: crystalline form by XRPD compared with Day 0” value in data set [4] is recorded as “remained unchanged”.
As for `CC[C@H]1[C@@H](O)[C@@H]2[C@H](CC[C@]3(C)[C@@H]([C@H](C)CCOc4ncc(C(=O)O)cc4Cl)CC[C@@H]23)[C@@]2(C)CC[C@@H](O)C[C@@H]12` [solid amorphous form of the compound of formula I], the “Solid-state stability: XRPD compared with Day 0” value in data set [4] (Day 10 and one month) was “remained unchanged”. The compound also showed a hygroscopic weight gain in data set [5] of 1.775%.

What is called bioavailability is the share of a dose that reaches the circulation, judged against a reference dose that is usually intravenous. The AUC is the area under the concentration-time curve, a measure of exposure. Low values mean less exposure, high ones more exposure. As usually defined, the Cmax is the peak of the concentration-time curve. For orientation: Tmax means the time at which the peak concentration occurs. As a reminder, the EC50 is the concentration needed to bring the measured effect to its halfway point.
